Reference: US5114918A, “Endothelin antagonistic cyclic pentapeptides” (Banyu Pharmaceutical Co., Ltd., priority 1989, dated 1992)
Numbered stars: 1 amine (or outer) side, 2 acyl side, 3 side chain; on linkers, the order of the positions; unused ones are H or OH. Square brackets hold non-standard residues; d marks the D form. Peptide text beside a SMILES is read from it. * marks the point of attachment. X3 = NC(=O)Cn1cc(C[C@@H](N[*:1])C(=O)[*:2])c2ccccc21; Gly(N-CH2CH2-imidazol-4-yl) = O=C(O)CNCCc1c[nH]cn1; dGly(2-thienyl) = N[C@@H](C(=O)O)c1cccs1; X5 = O=C([C@H](N[*:1])C1=CCC=CC1)[*:2]; dGly(cPent) = N[C@@H](C(=O)O)C1CCCC1; d(aIle) = CC[C@H](C)[C@@H](N)C(=O)O; dCya = N[C@H](CS(=O)(=O)O)C(=O)O; Met(O) = CS(=O)CC[C@H](N)C(=O)O; NMeL = CN[C@@H](CC(C)C)C(=O)O; N(iPr)Gly = CC(C)NCC(=O)O; Ac6c = NC1(C(=O)O)CCCCC1; Nle = CCCC[C@H](N)C(=O)O; Orn = NCCC[C@H](N)C(=O)O; Thz = O=C(O)[C@@H]1CSCN1; Aib = CC(C)(N)C(=O)O; For = O=C*

Target: T1, endothelin receptor (membrane of smooth muscle tissue of porcine aorta) (Sus scrofa, UniProt Q29010)
T1 construct: from tissue; host or cells: smooth muscle tissue of porcine aorta (membrane fraction)
T1 sequence (Q29010 21-427): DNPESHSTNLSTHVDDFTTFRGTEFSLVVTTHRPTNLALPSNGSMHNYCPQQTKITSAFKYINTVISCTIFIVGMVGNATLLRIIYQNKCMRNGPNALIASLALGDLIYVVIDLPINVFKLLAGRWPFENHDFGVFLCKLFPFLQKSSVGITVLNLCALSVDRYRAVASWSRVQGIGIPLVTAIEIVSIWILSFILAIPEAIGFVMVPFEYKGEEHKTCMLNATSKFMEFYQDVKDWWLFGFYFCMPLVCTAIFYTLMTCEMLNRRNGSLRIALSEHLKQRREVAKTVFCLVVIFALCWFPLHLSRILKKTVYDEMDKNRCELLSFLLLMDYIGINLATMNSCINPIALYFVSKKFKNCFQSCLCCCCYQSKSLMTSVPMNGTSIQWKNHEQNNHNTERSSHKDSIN
Test: Endothelin binding inhibition test (125I-endothelin-1, porcine aorta smooth muscle membrane)
Conditions: 1.1 μM of the test compound, porcine aorta smooth muscle membrane, 25° C, 4 hours; for inhibition at 1.1 µM: read-out: 125I-endothelin-1 binding inhibition, Inhibition (%)
Method: Endothelin binding inhibition test
The smooth muscle tissue of porcine aorta was homogenized in a buffer solution of 10 mM MOPS, pH 7.4, at 4° C. by a polytron. To the homogenate, sucrose was added to a concentration of 20%, and the mixture was centrifuged at 1,000×g for 15 minutes, and the supernatant was further centrifuged at 10,000×g for 15 minutes. The supernatant thereof was further centrifuged at 90,000×g for 40 minutes. The membrane precipitate thereby obtained was suspended in a buffer solution of 5 mM HEPES/Tris, pH 7.4, at a concentration of 25 mg/ml.
Then, 16 μl of this membrane suspension was added to 340 μl of 50 mM Tris/HCl buffer, pH 7.4, containing 10 μM calcium chloride, 10 μM magnesium chloride, 0.1 mM PMSF, 1 μM pepstatin A, 2 μM leupeptin, 1 mM 1,10-phenanthroline and 0.1% bovine serum albumin. To this suspension, 4 μl of (A) endothelin-1 (for nonspecific binding: 0.2 μM as the final concentration), (B) buffer solution A (for total control binding), or (C) a test compound (1.1 μM as the final concentration), was added. Further, to each suspension, 40 μl of ^125 I-endothelin-1 (12000-18000 cpm) was added. These mixtures were incubated at 25° C for 4 hours, then subjected to filtration on a glass filter GF/C and then washed with 5 mM HEPES/Tris, pH 7.4, containing 0.3% bovine serum albumin. Then, the radioactivity trapped by the glass filter was measured, and the ^125 I-endothelin-1 binding inhibition D (%) at 1.1 μM of the test compound was determined by the following equation. [formula] Each test was performed in triplicate.

Compound	125I-endothelin-1 binding inhibition, Inhibition (%)	inhibition at 1.1 µM
cyclo(-DTrp-DCys(O3 Na)-Glu-DVal-Leu-) [Example 49]	67%	
CC(C)C[C@@H]1NC(=O)[C@@H](C(C)C)NC(=O)[C@H](CC(=O)O)NC(=O)[C@@H](CC(=O)O)NC(=O)[C@@H](Cc2c[nH]c3ccccc23)NC1=O [Example 22, cyclo(-DTrp-DAsp-Asp-DVal-Leu-)] (cyclo(D[dV]L[dW][dD]))		75%
CC(C)C[C@@H]1NC(=O)[C@@H](C(C)C)NC(=O)C(C)(C)NC(=O)[C@@H](CC(=O)O)NC(=O)[C@@H](Cc2c[nH]c3ccccc23)NC1=O [Example 61, cyclo(-DTrp-DAsp-Aib-DVal-Leu-)] (cyclo([Aib][dV]L[dW][dD]))		66%
CC(C)C[C@@H]1NC(=O)[C@@H](C(C)C)NC(=O)[C@H](CC[S+](C)[O-])NC(=O)[C@@H](CC(=O)O)NC(=O)[C@@H](Cc2cn(C=O)c3ccccc23)NC1=O (stereo partly drawn) [Example 58, cyclo(-DTrp(CHO)-DAsp-Met(O)-DVal-Leu-)] (cyclo(L[dW](For)[dD][Met(O)][dV]))		84%
CC(C)C[C@@H]1NC(=O)[C@@H](C(C)C)NC(=O)[C@H](C)NC(=O)[C@@H](CS(=O)(=O)O)NC(=O)[C@@H](Cc2c[nH]c3ccccc23)NC1=O [Example 2, cyclo(-DTrp-DCys(O3 Na)-Ala-DVal-Leu-)] (cyclo(A[dV]L[dW][dCya]))		78%
CC(C)C[C@@H]1NC(=O)[C@@H](C(C)C)NC(=O)[C@H](Cc2c[nH]c3ccccc23)NC(=O)[C@@H](CC(=O)O)NC(=O)[C@@H](Cc2c[nH]c3ccccc23)NC1=O [Example 17, cyclo(-DTrp-DAsp-Trp-DVal-Leu-)] (cyclo(L[dW][dD]W[dV]))		75%
CC(C)[C@H]1NC(=O)[C@H](CC(=O)O)NC(=O)[C@@H](CC(=O)O)NC(=O)[C@@H](Cc2c[nH]c3ccccc23)NC(=O)[C@H](C)NC1=O [Example 38, cyclo(-DTrp-DAsp-Asp-DVal-Ala-)] (cyclo(A[dW][dD]D[dV]))		21%
CC(C)C[C@@H]1NC(=O)[C@@H](C(C)C)NC(=O)[C@H]([C@@H](C)O)NC(=O)[C@@H](CC(=O)O)NC(=O)[C@@H](Cc2c[nH]c3ccccc23)NC1=O [Example 27, cyclo(-DTrp-DAsp-Thr-DVal-Leu-)] (cyclo(L[dW][dD]T[dV]))		66%
cyclo([dW][dD]P[dV]L) [Example 30]	72%	
CC(C)C[C@@H]1NC(=O)[C@@H](C(C)C)NC(=O)[C@H](CO)NC(=O)[C@@H](CC(=O)O)NC(=O)[C@@H](Cc2c[nH]c3ccccc23)NC1=O [Example 26, cyclo(-DTrp-DAsp-Ser-DVal-Leu-)] (cyclo(L[dW][dD]S[dV]))		75%
CSCC[C@@H]1NC(=O)[C@@H](C(C)C)NC(=O)[C@H](CO)NC(=O)[C@@H](CC(=O)O)NC(=O)[C@@H](Cc2c[nH]c3ccccc23)NC1=O [Example 37, cyclo(-DTrp-DAsp-Ser-DVal-Met-)] (cyclo(M[dW][dD]S[dV]))		38%
CC(C)C[C@@H]1NC(=O)[C@@H](C(C)C)NC(=O)[C@H](CS)NC(=O)[C@@H](CC(=O)O)NC(=O)[C@@H](Cc2c[nH]c3ccccc23)NC1=O [Example 25, cyclo(-DTrp-DAsp-Cys-DVal-Leu-)] (cyclo(C[dV]L[dW][dD]))		74%
cyclo(-DTrp-DAsp-Cys(O3 Na)-DVal-Leu-) [Example 24]	78%	
CC(C)C[C@@H]1NC(=O)[C@@H](C(C)C)NC(=O)[C@H](CCC(=O)O)NC(=O)[C@@H](CC(=O)O)NC(=O)[C@@H](Cc2c[nH]c3ccccc23)NC1=O [Example 23, cyclo(-DTrp-DAsp-Glu-DVal-Leu-)] (cyclo(E[dV]L[dW][dD]))		72%
CC(C)C[C@@H]1NC(=O)[C@@H](C(C)C)NC(=O)[C@H](CCCN)NC(=O)[C@@H](CC(=O)O)NC(=O)[C@@H](Cc2c[nH]c3ccccc23)NC1=O [Example 20, cyclo(-DTrp-DAsp-Orn-DVal-Leu-)] (cyclo(L[dW][dD][Orn][dV]))		65%
CC(C)C[C@@H]1NC(=O)[C@@H](C(C)C)NC(=O)[C@H](CCC(N)=O)NC(=O)[C@@H](CC(=O)O)NC(=O)[C@@H](Cc2c[nH]c3ccccc23)NC1=O [Example 21, cyclo(-DTrp-nAsp-Gln-DVal-Leu-)] (cyclo(L[dW][dD]Q[dV]))		73%
CC(C)C[C@@H]1NC(=O)[C@@H](C(C)C)NC(=O)[C@H](CCCCN)NC(=O)[C@@H](CS(=O)(=O)O)NC(=O)[C@@H](Cc2c[nH]c3ccccc23)NC1=O [Example 50, cyclo(-DTrp-nCys(O3 H)-Lys-DVal-Leu-)] (cyclo(K[dV]L[dW][dCya]))		57%
CCCC[C@@H]1NC(=O)[C@@H](C(C)C)NC(=O)[C@H](CO)NC(=O)[C@@H](CC(=O)O)NC(=O)[C@@H](Cc2c[nH]c3ccccc23)NC1=O [Example 36, cyclo(-DTrp-DAsp-Ser-DVal-Nle-)] (cyclo([Nle][dW][dD]S[dV]))		67%

The remaining lines, values ahead:

125I-endothelin-1 binding inhibition, Inhibition (%)	inhibition at 1.1 µM	Compound
	82%	CC(C)C[C@@H]1NC(=O)[C@@H](C(C)C)NC(=O)CN(CCc2c[nH]cn2)C(=O)[C@@H](CC(=O)O)NC(=O)[C@@H](Cc2c[nH]c3ccccc23)NC1=O [Example 85, cyclo(-DTrp-DAsp-IeGly-DVal-Leu-)] (cyclo(L[dW][dD][Gly(N-CH2CH2-imidazol-4-yl)][dV]))
87%		cyclo([dW][dD]P[d(aIle)]L) [Example 32]
	83%	CC(C)C[C@@H]1NC(=O)C2(CCCCC2)NC(=O)[C@@H]2CCCN2C(=O)[C@@H](CC(=O)O)NC(=O)[C@@H](Cc2c[nH]c3ccccc23)NC1=O [Example 64, cyclo(-DTrp-DAsp-Pro-Ac6 c-Leu-)] (cyclo([Ac6c]L[dW][dD]P))
	60%	CC(C)C[C@@H]1NC(=O)C(C)(C)NC(=O)[C@@H]2CCCN2C(=O)[C@@H](CC(=O)O)NC(=O)[C@@H](Cc2c[nH]c3ccccc23)NC1=O [Example 62, cyclo(-DTrp-nAsp-Pro-Aib-Leu-)] (cyclo([Aib]L[dW][dD]P))
	85%	CC(C)C[C@H]1C(=O)N[C@H](Cc2c[nH]c3ccccc23)C(=O)N[C@H](CC(=O)O)C(=O)N2CCC[C@H]2C(=O)N[C@H](C(C)C)C(=O)N1C [Example 69, cyclo(-DTrp-DAsp-Pro-DVal-MeLeu-)] (cyclo([NMeL][dW][dD]P[dV]))
	89%	CC(C)C[C@@H]1NC(=O)[C@@H](C2=CCC=CC2)NC(=O)[C@@H]2CCCN2C(=O)[C@@H](CC(=O)O)NC(=O)[C@@H](Cc2c[nH]c3ccccc23)NC1=O [Example 74, cyclo(-DTrp-DAsp-Pro-DDpg-Leu-)] (cyclo(L[dW][dD]P[X5]))
	86%	CC(C)C[C@@H]1NC(=O)[C@@H](C(C)C)NC(=O)[C@@H]2CSCN2C(=O)[C@@H](CC(=O)O)NC(=O)[C@@H](Cc2c[nH]c3ccccc23)NC1=O [Example 68, cyclo(-DTrp-DAsp-Thz-DVal-Leu-)] (cyclo(L[dW][dD][Thz][dV]))
	43%	CC(C)[C@H]1NC(=O)[C@@H]2CCCN2C(=O)[C@@H](CC(=O)O)NC(=O)[C@@H](Cc2c[nH]c3ccccc23)NC(=O)[C@H](Cc2c[nH]cn2)NC1=O [Example 84, cyclo(-DTrp-DAsp-Pro-DVal-His)] (cyclo(H[dW][dD]P[dV]))
	86%	CC(C)C[C@@H]1NC(=O)[C@@H](C2CCCC2)NC(=O)[C@@H]2CCCN2C(=O)[C@@H](CC(=O)O)NC(=O)[C@@H](Cc2c[nH]c3ccccc23)NC1=O [Example 81, cyclo(-DTrp-DAsp-Pro-DCpg-Leu-)] (cyclo(L[dW][dD]P[dGly(cPent)]))
	23%	CC(C)C[C@@H]1NC(=O)[C@@H](C(C)C)NC(=O)[C@@H]2CCCN2C(=O)[C@@H](CC(=O)O)NC(=O)[C@@H](Cc2cn(CC(N)=O)c3ccccc23)NC1=O [Example 91, cyclo(-DTrp(CH2 CONH2)-DAsp-Pro-DVal-Leu-)] (cyclo(L[X3][dD]P[dV]))
	85%	CC(C)C[C@@H]1NC(=O)[C@@H](c2cccs2)NC(=O)CN(C(C)C)C(=O)[C@@H](CC(=O)O)NC(=O)[C@@H](Cc2c[nH]c3ccccc23)NC1=O [Example 78, cyclo(-DTrp-DAsp-^i PrGly-DThg-Leu-)] (cyclo(L[dW][dD][N(iPr)Gly][dGly(2-thienyl)]))
